Test results as given in patent US10758620B2, “Potentiated antimicrobial agents” (SEPTEOS, priority 2014, dated 2020).
Like-named read-outs stand apart in the source and are kept apart here.

Assays:
Format in all cases: cell-based
Strain 10168 SARM = experiment: Growth test in liquid medium; settings: compound at a very low dose
Text: The growth tests are made in a liquid medium with prior dispersing the antibiotic booster in a suitable solvent (tween/water).
4XMIC means that the concentration of antibiotic is 4 times higher than its MIC, measured when used alone on the strain considered.

Escherichia coli = experiment: MIC measurement in agar medium (dilution test), Coli; settings: potentiator alone
Text: (§1) Inhibitory minimum concentration measurement tests are made in a solid agar medium according to international standards in force (CLSI M7-A9 Jan 12 standards): dispersion of the compounds to be tested in a Mueller Hinton gelose. An adaptation relating to the hydrophobicity of compounds and compositions is however necessary to disperse them in the medium: dilution of the compounds in a solvent. The compounds and compositions incorporated in the agar medium can be diluted beforehand in one or more solvents (Tween® 80 diluted with water, Tween® 80 diluted with […], DMSO diluted with water). The strains are deposited onto the agar surface with a steers apparatus. In the examples, different dissolution methods for products are tested in parallel to circumvent the problems of water/solvent distribution coefficient of the molecules (antimicrobial and potentiator) whereas the bacteria grow only in the aqueous phase. The technical requirement will not intervene in in vivo tests. The same dilution methods can be implemented in a liquid medium (microplates and tubes). The same methodology is implemented with fungi. […] MIC measurement: the minimum inhibitory concentration measurement tests are made in an agar solid medium according to international standards in force (CLSI standards), according to the previously defined protocol. […] The booster contribution as compared with the MIC of the antibiotic alone is expressed in a (MIC ATB)/(MIC ATB+booster) ratio. Thereby, gains are defined: […]

MSSA 8237 = experiment: Etest, staphylococci MSSA 8237; settings: for MIC: Staphylococcus aureus, MSSA
Text: (§2) The corresponding tests are made based on the usual MIC test: the Etest® (Biomerieux) strip is deposited onto the surface of a seeded agar medium in which the booster has been incorporated. This test enables solvent effect risks, that is a possible interaction with the solvent used in vitro, to be minimised.
(§3) The control corresponds to the test made without cineol. A control is made in each solvent tested: distilled water, Tween/water and DMSO.
(§4) ED control=antibiotic alone in distilled water
(§5) DMSO control=antibiotic alone in DMSO
(§6) TE control=antibiotic alone in Tween® 80

Pseudomonas Strain 08132 = experiment: Etest, Pseudomonas Strain 08132
Text: as §2, §3, §4, §5, §6

Pseudomonas aeruginosa = experiment: MIC measurement in agar medium (dilution test), Pyo; settings: potentiator alone
Text: as §1

[1] = system: methicillin resistant S. aureus (MRSA) strains 09003, 10168; experiment: MIC of the potentiator used alone on the strains of Examples 3 and 4; settings: Staphylococcus aureus, on these strains
[2] = system: bacterial strains (Pyo, Coli, Staph); experiment: MIC measurement in agar medium, tested bacterial strains overall; settings: compound alone, depending on the strains
Text: Inhibitory minimum concentration measurement tests are made in a solid agar medium according to international standards in force (CLSI M7-A9 Jan 12 standards): dispersion of the compounds to be tested in a Mueller Hinton gelose. An adaptation relating to the hydrophobicity of compounds and compositions is however necessary to disperse them in the medium: dilution of the compounds in a solvent. The compounds and compositions incorporated in the agar medium can be diluted beforehand in one or more solvents (Tween® 80 diluted with water, Tween® 80 diluted with […], DMSO diluted with water). The strains are deposited onto the agar surface with a steers apparatus. In the examples, different dissolution methods for products are tested in parallel to circumvent the problems of water/solvent distribution coefficient of the molecules (antimicrobial and potentiator) whereas the bacteria grow only in the aqueous phase. The technical requirement will not intervene in in vivo tests. The same dilution methods can be implemented in a liquid medium (microplates and tubes). The same methodology is implemented with fungi. MIC measurement: the minimum inhibitory concentration measurement tests are made in an agar solid medium according to international standards in force (CLSI standards), according to the previously defined protocol. […] [table]

Staphylococcus = experiment: MIC measurement in agar medium (dilution test), Staph; settings: potentiator alone
Text: as §1

[3] = MSSA 8237, booster 1 mg/L in agar, DMSO
[4] = MSSA 8237, booster 1 mg/L in agar, Tween/water
[5] = MSSA 8237, booster 4 mg/L in agar, DMSO
[6] = MSSA 8237, booster 4 mg/L in agar, Tween/water
[7] = MSSA 8237, booster 16 mg/L in agar, DMSO
[8] = MSSA 8237, booster 16 mg/L in agar, Tween/water
[9] = MSSA 8237, booster 1 mg/L in agar, DMSO, read-out: MIC of Clindamycine
[10] = MSSA 8237, booster 1 mg/L in agar, Tween/water, read-out: MIC of Clindamycine
[11] = MSSA 8237, booster 4 mg/L in agar, DMSO, read-out: MIC of Clindamycine
[12] = MSSA 8237, booster 4 mg/L in agar, Tween/water, read-out: MIC of Clindamycine
[13] = MSSA 8237, booster 16 mg/L in agar, DMSO, read-out: MIC of Clindamycine
[14] = MSSA 8237, booster 16 mg/L in agar, Tween/water, read-out: MIC of Clindamycine
[15] = read-out: MIC of Pipera tazo, MSSA 8237, booster 1 mg/L in agar, DMSO
[16] = read-out: MIC of Pipera tazo, MSSA 8237, booster 1 mg/L in agar, Tween/water
[17] = read-out: MIC of Pipera tazo, MSSA 8237, booster 4 mg/L in agar, DMSO
[18] = read-out: MIC of Pipera tazo, MSSA 8237, booster 4 mg/L in agar, Tween/water
[19] = read-out: MIC of Pipera tazo, MSSA 8237, booster 16 mg/L in agar, Tween/water

Structure (SMILES): CC(=O)OCC=Cc1ccccc1 [AC, cinnamyl acetate]
- effect of the compound on bactericidal rate of Augmentin (Strain 10168 SARM): enables the bactericidal rate of Augmentin® to be accelerated
- MIC 50 (Escherichia coli; solvent DMSO): 1.00%
- MIC 90 (Escherichia coli; solvent DMSO): 1.00%
- MIC 50 (Escherichia coli; solvent Tween/prop glyc): >1%
- MIC 90 (Escherichia coli; solvent Tween/prop glyc): >1%
- MIC 50 (Escherichia coli; solvent Tween/water): >1%
- MIC 90 (Escherichia coli; solvent Tween/water): >1%
- MIC 50 (Escherichia coli; solvent water/water): >1%
- MIC 90 (Escherichia coli; solvent water/water): >1%
- MIC of Cefoxitine (MSSA 8237; [3]): 2 µg/mL
- MIC of Meropenem (MSSA 8237; [3]): 0.25 µg/mL
- MIC of Penicillin G (MSSA 8237; [3]): 0.25 µg/mL
- MIC of Cefoxitine (MSSA 8237; [4]): 3 µg/mL
- MIC of Meropenem (MSSA 8237; [4]): 0.25 µg/mL
- MIC of Penicillin G (MSSA 8237; [4]): 0.5 µg/mL
- MIC of Cefoxitine (MSSA 8237; [5]): 3 µg/mL
- MIC of Meropenem (MSSA 8237; [5]): 0.19 µg/mL
- MIC of Penicillin G (MSSA 8237; [5]): 0.19 µg/mL
- MIC of Cefoxitine (MSSA 8237; [6]): 2 µg/mL
- MIC of Meropenem (MSSA 8237; [6]): 0.19 µg/mL
- MIC of Penicillin G (MSSA 8237; [6]): 0.125 µg/mL
- MIC of Cefoxitine (MSSA 8237; [7]): <0.016 µg/mL
- MIC of Meropenem (MSSA 8237; [7]): <0.002 µg/mL
- MIC of Penicillin G (MSSA 8237; [7]): <0.002 µg/mL
- MIC of Cefoxitine (MSSA 8237; [8]): 1.5 µg/mL
- MIC of Meropenem (MSSA 8237; [8]): 0.064 µg/mL
- MIC of Penicillin G (MSSA 8237; [8]): 0.064 µg/mL
- MIC (MSSA 8237; [9]): 0.047 µg/mL
- MIC (MSSA 8237; [10]): 0.047 µg/mL
- MIC (MSSA 8237; [11]): 0.047 µg/mL
- MIC (MSSA 8237; [12]): 0.064 µg/mL
- MIC (MSSA 8237; [13]): < 0.016 µg/mL
- MIC (MSSA 8237; [14]): 0.125 µg/mL
- MIC (MSSA 8237; [15]): 0.75 µg/mL
- MIC (MSSA 8237; [16]): 1 µg/mL
- MIC (MSSA 8237; [17]): 0.5 µg/mL
- MIC (MSSA 8237; [18]): 0.5 µg/mL
- MIC (MSSA 8237; [19]): 0.38 µg/mL
- MIC of Meropenem (Pseudomonas Strain 08132; booster 1 mg/L in agar, Tween/water): 8 µg/mL
- MIC 50 (Pseudomonas aeruginosa; solvent DMSO): 1.00%
- MIC 90 (Pseudomonas aeruginosa; solvent DMSO): 1.00%
- MIC 50 (Pseudomonas aeruginosa; solvent Tween/prop glyc): >1%
- MIC 90 (Pseudomonas aeruginosa; solvent Tween/prop glyc): >1%
- MIC 50 (Pseudomonas aeruginosa; solvent Tween/water): >1%
- MIC 90 (Pseudomonas aeruginosa; solvent Tween/water): >1%
- MIC 50 (Pseudomonas aeruginosa; solvent water/water): >1%
- MIC 90 (Pseudomonas aeruginosa; solvent water/water): >1%
- MIC [1]: > 10000 µg/mL
- MIC [2]: > 10000 µg/mL
- MIC 50 (Staphylococcus; solvent DMSO): 1.00%
- MIC 90 (Staphylococcus; solvent DMSO): 1.00%
- MIC 50 (Staphylococcus; solvent Tween/prop glyc): >1%
- MIC 90 (Staphylococcus; solvent Tween/prop glyc): >1%
- MIC 50 (Staphylococcus; solvent Tween/water): >1%
- MIC 90 (Staphylococcus; solvent Tween/water): >1%
- MIC 50 (Staphylococcus; solvent water/water): >1%
- MIC 90 (Staphylococcus; solvent water/water): >1%

Structure (SMILES): O=C(OCc1ccccc1)c1ccccc1 [BB, benzyl benzoate]
- effect of the compound on bactericidal rate of Augmentin (Strain 10168 SARM): enables the bactericidal rate of Augmentin® to be accelerated
- MIC 50 (Escherichia coli; solvent DMSO): >1%
- MIC 90 (Escherichia coli; solvent DMSO): >1%
- MIC 50 (Escherichia coli; solvent Tween/prop glyc): >1%
- MIC 90 (Escherichia coli; solvent Tween/prop glyc): >1%
- MIC 50 (Escherichia coli; solvent Tween/water): >1%
- MIC 90 (Escherichia coli; solvent Tween/water): >1%
- MIC 50 (Escherichia coli; solvent water/water): >1%
- MIC 90 (Escherichia coli; solvent water/water): >1%
- MIC of Cefoxitine (MSSA 8237; [3]): 2 µg/mL
- MIC of Meropenem (MSSA 8237; [3]): 0.25 µg/mL
- MIC of Penicillin G (MSSA 8237; [3]): 0.38 µg/mL
- MIC of Cefoxitine (MSSA 8237; [4]): 3 µg/mL
- MIC of Meropenem (MSSA 8237; [4]): 0.19 µg/mL
- MIC of Penicillin G (MSSA 8237; [4]): 0.25 µg/mL
- MIC of Cefoxitine (MSSA 8237; [5]): 3 µg/mL
- MIC of Meropenem (MSSA 8237; [5]): 0.19 µg/mL
- MIC of Penicillin G (MSSA 8237; [5]): 0.25 µg/mL
- MIC of Cefoxitine (MSSA 8237; [6]): 3 µg/mL
- MIC of Meropenem (MSSA 8237; [6]): 0.125 µg/mL
- MIC of Penicillin G (MSSA 8237; [6]): 0.19 µg/mL
- MIC of Cefoxitine (MSSA 8237; [7]): 3 µg/mL
- MIC of Meropenem (MSSA 8237; [7]): 0.19 µg/mL
- MIC of Penicillin G (MSSA 8237; [7]): 0.19 µg/mL
- MIC of Cefoxitine (MSSA 8237; [8]): 3 µg/mL
- MIC of Meropenem (MSSA 8237; [8]): 0.064 µg/mL
- MIC of Penicillin G (MSSA 8237; [8]): 0.125 µg/mL
- MIC (MSSA 8237; [9]): 0.047 µg/mL
- MIC (MSSA 8237; [10]): 0.047 µg/mL
- MIC (MSSA 8237; [11]): 0.047 µg/mL
- MIC (MSSA 8237; [12]): 0.047 µg/mL
- MIC (MSSA 8237; [13]): 0.047 µg/mL
- MIC (MSSA 8237; [14]): 0.094 µg/mL
- MIC (MSSA 8237; [15]): 1 µg/mL
- MIC (MSSA 8237; [16]): 1 µg/mL
- MIC (MSSA 8237; [17]): 1 µg/mL
- MIC (MSSA 8237; [18]): 1 µg/mL
- MIC (MSSA 8237; read-out: MIC of Pipera tazo, MSSA 8237, booster 16 mg/L in agar, DMSO): 0.75 µg/mL
- MIC (MSSA 8237; [19]): 0.75 µg/mL
- MIC of Meropenem (Pseudomonas Strain 08132; booster 4 mg/L in agar, DMSO): 8 µg/mL
- MIC of Meropenem (Pseudomonas Strain 08132; booster 4 mg/L in agar, Tween/water): 8 µg/mL
- MIC of Meropenem (Pseudomonas Strain 08132; booster 16 mg/L in agar, DMSO): 2 µg/mL
- MIC of Meropenem (Pseudomonas Strain 08132; booster 16 mg/L in agar, Tween/water): 12 µg/mL
- MIC 50 (Pseudomonas aeruginosa; solvent DMSO): 1.00%
- MIC 90 (Pseudomonas aeruginosa; solvent DMSO): 1.00%
- MIC 50 (Pseudomonas aeruginosa; solvent Tween/prop glyc): >1%
- MIC 90 (Pseudomonas aeruginosa; solvent Tween/prop glyc): >1%
- MIC 50 (Pseudomonas aeruginosa; solvent Tween/water): >1%
- MIC 90 (Pseudomonas aeruginosa; solvent Tween/water): >1%
- MIC 50 (Pseudomonas aeruginosa; solvent water/water): >1%
- MIC 90 (Pseudomonas aeruginosa; solvent water/water): >1%
- MIC [1]: > 10000 µg/mL
- MIC [2]: > 10000 µg/mL
- MIC 50 (Staphylococcus; solvent DMSO): 1.00%
- MIC 90 (Staphylococcus; solvent DMSO): 1.00%
- MIC 50 (Staphylococcus; solvent Tween/prop glyc): >1%
- MIC 90 (Staphylococcus; solvent Tween/prop glyc): >1%
- MIC 50 (Staphylococcus; solvent Tween/water): >1%
- MIC 90 (Staphylococcus; solvent Tween/water): >1%
- MIC 50 (Staphylococcus; solvent water/water): >1%
- MIC 90 (Staphylococcus; solvent water/water): >1%
